From ChEMBL document CHEMBL1149294, “A novel class of inhibitors of peptide deformylase discovered through high-throughput screening and virtual ligand screening” (J Med Chem, 2004) come the findings set out here.

Calls of active or inactive are those of the source. The rule behind the calls is not given here.

For the first assay, the target named is T1, Peptide deformylase (Escherichia coli, UniProt Q9JN24).
T1 sequence (Q9JN24 whole entry): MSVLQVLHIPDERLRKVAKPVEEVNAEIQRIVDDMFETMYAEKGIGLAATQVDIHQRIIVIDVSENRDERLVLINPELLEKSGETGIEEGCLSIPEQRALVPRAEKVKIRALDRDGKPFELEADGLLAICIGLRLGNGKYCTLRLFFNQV
Kind of assay: Inhibition of Escherichia coli PDF.
Molecule `O=C(O)CCCCCN1C(=O)/C(=C/c2ccc(-c3ccc(Cl)c(Cl)c3)o2)SC1=S` returned an IC50 of over 30 µM.
In turn, `O=C(O)CCCCCN1C(=O)/C(=C/c2cn(-c3ccccc3)nc2-c2cccs2)SC1=S` returned a half-inhibitory concentration (IC50) of over 30 µM.
With `Cc1nn(CCC#N)cc1/C=C1\SC(=S)N(CCCCCC(=O)O)C1=O`, the IC50 was over 30 µM.
Turning to `CC(/C=C1\SC(=S)N(CCCCCC(=O)O)C1=O)=C\c1ccccc1`, the IC50 is over 30 µM.
`Cc1ccc(-c2nn(-c3ccccc3)cc2/C=C2\SC(=S)N(CC(=O)O)C2=O)cc1` came in with an IC50 of over 30 µM.
The molecule `COc1ccc(/C=C2\SC(=S)N(CCCCCC(=O)O)C2=O)cc1Br` had an IC50 of over 30 µM.
`Cc1cc(/C=C2\SC(=S)N(CCCCCC(=O)O)C2=O)c(C)n1-c1ccccc1` yielded an IC50 of over 30 µM.
For the molecule `O=C(O)CCCCCN1C(=O)/C(=C/c2c[nH]c3ccccc23)SC1=S`, the IC50 is over 30 µM.
With `O=C(O)CCN1C(=O)/C(=C/c2cn(-c3ccccc3)nc2-c2ccccc2)SC1=S`, the IC50 was over 30 µM.
Turning to `O=C(O)CCCCCN1C(=O)/C(=C/c2cn(-c3ccccc3)nc2-c2ccccc2)SC1=S`, the IC50 was over 30 µM.
`Cc1ccc(-c2nn(-c3ccccc3)cc2/C=C2\SC(=S)N(CCCCCC(=O)O)C2=O)o1` gave an IC50 of over 30 µM.
The molecule `Cc1nn(-c2ccccc2)c(Cl)c1/C=C1\SC(=S)N(CCCCCC(=O)O)C1=O` displayed an IC50 of over 30 µM.
Regarding `Cc1cc(/C=C2\SC(=S)N(CCCCCC(=O)O)C2=O)c(C)n1-c1ccc(Br)cc1`, the half-maximal inhibitory concentration (IC50) is over 30 µM.
In the case of `COc1ccccc1/C=C1\SC(=S)N(CCCCCC(=O)O)C1=O`, the IC50 was over 30 µM.
Consider `O=C(O)CCCCCN1C(=O)/C(=C/c2ccc(F)cc2)SC1=S`, for which the IC50 was over 30 µM.
For the molecule `CCOc1cc(/C=C2\SC(=S)N(CCCCCC(=O)O)C2=O)ccc1O`, the IC50 was over 30 µM.

The test system of the next assay is Glycine max. Description: Inhibition of soybean PDF using PDF/FDH coupled spectrophotometric assay.
For the molecule `COC(=O)CCCCCN1C(=O)/C(=C/c2cc(C)n(-c3ccccc3)c2C)SC1=S`, the result was inactive.
On to `Cc1ccc(-c2nn(-c3ccccc3)cc2/C=C2\SC(=S)N(CC(=O)O)C2=O)cc1`, for which the result was inactive.
`O=C(O)CCN1C(=O)/C(=C/c2cn(-c3ccccc3)nc2-c2ccccc2)SC1=S`: the result was inactive.
